# Measured values as given in publication PMC6858373 (Scientific Reports, 2019).
# Like-named read-outs stand apart in the source and are kept apart here.
# Assays:
# [1] = biological target: full-length P. pyralis luciferase (Photinus pyralis, UniProt P08659, K549A/L550V/N119G/N50D/S548I); assay type: cell-based
# [2] = biological target: T1, FGF14:Nav1.6 C-tail complex (Homo sapiens, UniProt Q92915+Q9UQD0); test: Split-luciferase complementation assay (LCA) in Clone V double stable HEK293 cells; assay type: cell-based
# T1 construct: polymerase chain reaction (PCR) amplification of the FGF14 open reading frame (nt 1–855); C-terminal fragment of Nav1.6 (amino acids 1763–1976) fused with CD4ΔC-tail (amino acids 1–395); expressed in transfected cells
# [3] = CC_NCI screening, LCA luminescence, biological replicate Set 1, normalized to on-plate 0.3% DMSO controls (n=16 per plate)
# [4] = CC_NCI screening, LCA luminescence, biological replicate Set 2, normalized to on-plate 0.3% DMSO controls (n=16 per plate)
# [5] = CC_NCI screening, LCA, biological replicate Set 1, normalized to on-plate 0.3% DMSO controls
# [6] = CC_NCI screening, LCA, biological replicate Set 2, normalized to on-plate 0.3% DMSO controls
# [7] = CC_NCI screening, average of Set 1 and Set 2, normalized to 0.3% DMSO controls
# [8] = CC_NCI screening, full-length luciferase counter-screen luminescence, normalized to on-plate 0.3% DMSO controls
# [9] = CC_NCI screening, full-length luciferase counter-screen, normalized to on-plate 0.3% DMSO controls
# [10] = CC_NCI screening, normalized to on-plate 0.3% DMSO controls
# [11] = CC_NCI screening, biological replicate Set 1, normalized to on-plate 0.3% DMSO controls
# [12] = CC_NCI screening, biological replicate Set 1, normalized to on-plate 0.3% DMSO controls (n=16 per plate)
# [13] = CC_NCI screening, biological replicate Set 2, normalized to on-plate 0.3% DMSO controls
# [14] = CC_NCI screening, biological replicate Set 2, normalized to on-plate 0.3% DMSO controls (n=16 per plate)
# [15] = average of Set 1 and Set 2, normalized to 0.3% DMSO controls
# Chain of full-length P. pyralis luciferase (P08659 whole entry N50D/N119G/S548I/K549A/L550V, looked up): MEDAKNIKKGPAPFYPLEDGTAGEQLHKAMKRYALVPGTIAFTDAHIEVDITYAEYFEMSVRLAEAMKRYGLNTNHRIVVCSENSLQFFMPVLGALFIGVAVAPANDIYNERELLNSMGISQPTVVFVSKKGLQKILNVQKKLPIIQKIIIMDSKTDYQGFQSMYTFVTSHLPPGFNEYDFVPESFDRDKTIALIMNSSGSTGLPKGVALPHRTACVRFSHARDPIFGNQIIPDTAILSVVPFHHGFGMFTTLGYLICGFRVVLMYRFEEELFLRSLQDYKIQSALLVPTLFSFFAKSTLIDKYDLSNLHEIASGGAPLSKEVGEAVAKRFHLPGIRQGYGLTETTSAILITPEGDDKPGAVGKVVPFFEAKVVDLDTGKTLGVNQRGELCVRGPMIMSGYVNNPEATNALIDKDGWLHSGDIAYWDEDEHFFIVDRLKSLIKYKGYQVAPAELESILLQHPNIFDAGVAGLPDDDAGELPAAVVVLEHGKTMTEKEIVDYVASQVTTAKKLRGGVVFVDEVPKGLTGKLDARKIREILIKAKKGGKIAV
# T1 sequence (Q92915 1-252 isoform Q92915-2): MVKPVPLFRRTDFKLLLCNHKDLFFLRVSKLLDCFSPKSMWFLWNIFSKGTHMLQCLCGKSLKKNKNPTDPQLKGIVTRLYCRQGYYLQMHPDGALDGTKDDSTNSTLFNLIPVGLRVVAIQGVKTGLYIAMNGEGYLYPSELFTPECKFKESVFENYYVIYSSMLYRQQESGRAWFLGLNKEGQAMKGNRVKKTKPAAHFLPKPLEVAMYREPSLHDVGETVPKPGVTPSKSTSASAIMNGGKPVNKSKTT
# T1 sequence (Q9UQD0 1763-1976 limits assumed): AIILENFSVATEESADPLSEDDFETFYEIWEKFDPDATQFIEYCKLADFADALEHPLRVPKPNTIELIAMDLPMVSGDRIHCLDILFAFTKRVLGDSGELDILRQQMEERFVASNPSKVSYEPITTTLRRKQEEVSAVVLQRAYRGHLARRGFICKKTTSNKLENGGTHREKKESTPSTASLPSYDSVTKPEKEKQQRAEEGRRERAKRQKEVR
Structure (SMILES),Luciferase Assay % Lum [1] [%],Luciferase Assay Z-score [1],"Split Luciferase Assay % Lum Set 1 [2, 3] [%]","Split Luciferase Assay %Lum Set 2 [2, 4] [%]","Split Luciferase Assay Z-score Set 1 [2, 5]","Split Luciferase Assay Z-score Set 2 [2, 6]","Split Luciferase Assay %Lum Avg [2, 7] [%]","Toxicity Assay % Fluor (Clone V cells; human, 16 h, 30 µM) [%]","Toxicity Assay Z-score (Clone V cells; human, 16 h, 30 µM)","Luciferase Assay % Lum [1, 8] [%]","Luciferase Assay Z-score [1, 9]",also measured
O=C(CCBr)N1CCN(C(=O)CCBr)CC1 [Pipobroman],102.03,0.26,125.34,121.72,2.05,1.77,123.53,98.07,-0.27,–,–,–
c1cc(CN2CCCNCCNCCCNCC2)ccc1CN1CCCNCCNCCCNCC1 [Plerixafor],97.43,-0.33,112.30,111.31,0.99,0.92,111.81,92.88,-1.00,–,–,–
O=C(c1ccc(OCCN2CCCCC2)cc1)c1c(-c2ccc(O)cc2)sc2cc(O)ccc12 [Raloxifene],–,–,56.86,52.02,-3.49,-3.90,54.44,90.90,-1.27,91.29,-1.12,–
CC[C@H](CO)Nc1nc(NCc2ccccc2)c2ncn(C(C)C)c2n1 [Roscovitine],97.39,-0.33,–,–,–,–,–,–,–,–,–,Split Luciferase Assay % Lum Set 1 [2]: 32.94%; Split Luciferase Assay %Lum Avg [2]: 39.88%; Split Luciferase Assay %Lum Set 2 [2]: 46.81%; Split Luciferase Assay Z-score Set 1 [2]: -5.42; Split Luciferase Assay Z-score Set 2 [2]: -4.33; Toxicity Assay % Fluor (Clone V cells; human): 99.28%; Toxicity Assay Z-score (Clone V cells; human): -0.10
"C[S+]([O-])c1ccc(-c2nc(-c3ccncc3)c(-c3ccc(F)cc3)[nH]2)cc1 (centres unmarked) [SB 203580, reference compound]",80.35,-2.52,–,–,–,–,–,95.56,-0.62,–,–,EMax (% Luminescence) [2]: 152.42 % Luminescence; Split Luciferase Assay %Lum Avg [2]: 152.42%; Split Luciferase Assay %Lum Set 2 [2]: 166.45%; Split Luciferase Assay Z-score Set 1 [2]: 3.10; Split Luciferase Assay Z-score Set 2 [2]: 5.41; Z-score (LCA primary screening) [2]: 4.25; dose-dependent behavior in LCA [2]: mild inhibition at lower concentrations (0.5–2 µM) and stimulation at higher concentrations
Cn1cc(C2=C(c3ccc(Cl)cc3Cl)C(=O)NC2=O)c2ccccc21 [SB 216763],–,–,88.38,106.11,-0.94,0.50,97.25,101.41,0.20,100.07,0.01,–
O=C1NC(=O)c2c1c1c3ccccc3n3c1c1c2c2ccccc2n1C1CCC3O1 [SB 218078],–,–,–,–,–,–,–,–,–,–,–,"Luciferase Assay % Lum (full-length luciferase counter-screen) [1, 10]: 92.40%; Luciferase Assay Z-score (full-length luciferase counter-screen) [1, 10]: -0.97; Split Luciferase Assay Z-score Set 1 [2, 11]: -1.55; Split Luciferase Assay % Lum Set 1 [2, 12]: 80.77%; Split Luciferase Assay Z-score Set 2 [2, 13]: -1.79; Split Luciferase Assay %Lum Set 2 [2, 14]: 78.02%; Split Luciferase Assay %Lum Avg [2, 15]: 79.40%; Toxicity Assay % Fluor (CTB cell viability fluorescence) (Clone V cells): 109.07%; Toxicity Assay Z-score (CTB cell viability) (Clone V cells): 1.27"
NC(=O)c1ccc(-c2nc(-c3ccc4c(c3)OCO4)c(-c3ccccn3)[nH]2)cc1 [SB 431542],–,–,112.30,114.43,0.99,1.17,113.37,90.72,-1.30,93.14,-0.88,–
NC(=O)c1ccc2[nH]ccc2c1 [SD 169],–,–,–,–,–,–,–,–,–,–,–,"Luciferase Assay % Lum (full-length luciferase counter-screen) [1, 10]: 109.31%; Luciferase Assay Z-score (full-length luciferase counter-screen) [1, 10]: 1.19; Split Luciferase Assay Z-score Set 1 [2, 11]: 2.14; Split Luciferase Assay % Lum Set 1 [2, 12]: 126.43%; Split Luciferase Assay Z-score Set 2 [2, 13]: 1.34; Split Luciferase Assay %Lum Set 2 [2, 14]: 116.51%; Split Luciferase Assay %Lum Avg [2, 15]: 121.47%; Toxicity Assay % Fluor (CTB cell viability fluorescence) (Clone V cells): 104.03%; Toxicity Assay Z-score (CTB cell viability) (Clone V cells): 0.56"
Fc1ccc(Cl)cc1-c1nc(Nc2ccncc2)c2nccnc2n1 [SD 208],–,–,–,–,–,–,–,–,–,–,–,"Luciferase Assay % Lum (full-length luciferase counter-screen) [1, 10]: 88.62%; Luciferase Assay Z-score (full-length luciferase counter-screen) [1, 10]: -1.46; Split Luciferase Assay Z-score Set 2 [2, 13]: -3.73; Split Luciferase Assay %Lum Set 2 [2, 14]: 54.10%; Split Luciferase Assay %Lum Avg [2, 15]: 95.16%; Toxicity Assay % Fluor (CTB cell viability fluorescence) (Clone V cells): 107.60%; Toxicity Assay Z-score (CTB cell viability) (Clone V cells): 1.06"
Cc1cccc(Nc2nc(-c3ccncc3)cs2)c1 [STF-62247],–,–,23.16,33.29,-6.21,-5.43,28.22,–,–,83.43,-2.12,Toxicity Assay % Fluor (Clone V cells): 98.46%; Toxicity Assay Z-score (Clone V cells): -0.22
CN(C)S(=O)(=O)c1ccc2c(c1)/C(=C/c1cc3c([nH]1)CCCC3)C(=O)N2 [SU 6656],–,–,128.60,106.11,2.31,0.50,117.36,105.95,0.83,101.36,0.17,–
Cc1[nH]c(/C=C2\C(=O)Nc3ccc(S(=O)(=O)N(C)c4cccc(Cl)c4)cc32)c(C)c1C(=O)N1CCN(C)CC1 [SU 11274],–,–,81.86,81.14,-1.47,-1.53,81.50,97.70,-0.32,85.15,-1.90,–
CCN(CC)CCNC(=O)c1c(C)[nH]c(/C=C2\C(=O)Nc3ccc(F)cc32)c1C [SUNITINIB],90.75,-1.18,80.77,74.90,-1.55,-2.04,77.84,–,–,–,–,Toxicity Assay % Fluor (Clone V cells): 93.10%
